Measurements: patent publication US6512002B2, “Methods of treatment for premature ejaculation in a male” (Pfizer Inc., priority 2000, dated 2003)

How the values were obtained:
[1] = test system: total serum testosterone; test: Testosterone elevation: total serum testosterone in a random, double-blind, parallel group, placebo-controlled study; assay type: in vivo, men
Description: In a random, double-blind, parallel group, placebo-controlled study, 3-{1-[4-(2-dimethylamino-ethoxy)-phenyl]-2-phenyl-but-enyl}-phenol was administered to men, aged 72 to 84 with below average serum testosterone levels. Subjects received either placebo or 3-{1-[4-(2-dimethylamino-ethoxy)-phenyl]-2-phenyl-but-enyl}-phenol as a sequential escalating dose, with subjects receiving 20 mg daily for the first month, 40 mg daily for the second month, and 60 mg daily for the final four months (remainder) of the study. Total serum testosterone was determined in the subjects at 4 weeks and at 2, 3 and 6 months.

Compound | melting point | Mean Percent Change From Baseline in Testosterone ([1]; 2 Months, men aged 72 to 84, escalating dose, 40 mg daily for the second month) | Mean Percent Change From Baseline in Testosterone ([1]; 3 Months, men aged 72 to 84, escalating dose, 60 mg daily for the final four months) | Mean Percent Change From Baseline in Testosterone ([1]; 6 Months, men aged 72 to 84, escalating dose, 60 mg daily for the final four months) | Mean Percent Change From Baseline in Testosterone ([1]; Week 4, men aged 72 to 84 with below average serum testosterone, 20 mg daily for the first month) | total serum testosterone versus subjects receiving placebo during the study ([1]; men aged 72 to 84, 20/40/60 mg daily escalating dose over 6 months, p=0.026)
CCCOc1ncc(C(C)=O)cc1-c1nc2c(CC)n(C3CN(C(C)C)C3)nc2c(=O)[nH]1 | 162.8 to 163.6 °C | – | – | – | – | –
CCC(=C(c1ccc(OCCN(C)C)cc1)c1cccc(O)c1)c1ccccc1 [Treatment Compound, 3-{1-[4-(2-dimethylamino-ethoxy)-phenyl]-2-phenyl-but-enyl}-phenol] | – | 44.45% | 41.47% | 45.19% | 36.20% | significant increase
